# Laboratory results published in patent US20090233895A1, “METHOD OF TREATMENT OF BACTERIAL INFECTIONS” (Ethypharm, priority 2006, published 2009).
# Key:
# [1] = test system: E. coli GR2; assay: modified Hollow T-Tube in vitro model simulating antibacterial treatment with oral cefaclor in humans over 24 hours; type: cell-based, Escherichia coli; conditions: for Observed Δt > MIC / Δt > MIC: percentage of the dosage interval
# Method: The bacteria stem from one strain of Escherichia coli, species that is considered to be non-constantly sensitive. The strain was obtained from M.-H. Nicolas (Hôpital Ambroise Paré, Paris, France) under the code E. coli GR2 with MIC of […]. The usual breakpoints with cefaclor for E. coli are ≦2 mg/l for sensitive strains and >8 mg/l for resistant strains, according to CA-SFM (Comité de l'Antibiogramme de la Société Française de Microbiologie).
# The culture media is a Müller-Hinton Broth (MHB) obtained from Pasteur diagnostic (reference 69444). The starting inoculum of E. coli in the culture media is 10^7±5% CFU/ml. The E. coli concentration is measured by nephelometry (Densimat, ref. 99535 ver. A, Biomérieux, France) and standard dilution method.
# (§1) The counting of E. coli present in the culture medium was measured in vitro in a model simulating the antibacterial treatment with oral beta-lactamine in humans over 24 hours.
# (§2) The model simulating the antibacterial treatment used in the examples is a modified “Hollow T-Tube”-model, originally described by Cappellety et al. (Pharmacodynamics of ceftazidime administered as continuous infusion or intermittent bolus alone or in combination with single daily-dose amikacine against Pseudomonas aeruginosa in an in vitro infection model, A.A.C., 1995, 33: 1797-1801) and modified by the inventors (Louchahi et al. A procedure to mimic human impaired kinetic profiles of antibiotics with the hollow glass T-tube in vitro pharmacodynamic model, Abstract no 2116, p. 234, 39th ICAAC, Sep. 26-29, 1999, San Francisco).
# In all experiments the period during which, after the addition of cefaclor, the concentration of cefaclor was above the MIC was measured (Δt>MIC). The result is expressed as percentage of the dosage interval.
# The variation of the bacterial count was regularly registered during 24 hours. The result is expressed as ΔUFC/ml. For every experiment, the negative sign is highlighting the decreasing count with time since it corresponds to the difference between the initial inoculum at T0 and final bacterial count at T 24 h.
# [2] = cefaclor concentration profile (t1/2, cmax) observed in the modified Hollow T-Tube in vitro model
# Method: as §1, §2
# Three different elimination half-lives were simulated: • 1. t1/2=45-50 min, which corresponds to a conventional immediate release form of cefaclor, • 2. t1/2=55-60 min, which corresponds to a conventional sustained release form of cefaclor, • 3. t1/2=90-100 min, which corresponds to an extended release form of cefaclor according to the present invention.
# [3] = E1.1: expected t1/2 45-50 min, 500 mg, interval 8 h
# [4] = E1.2: expected t1/2 55-60 min, 750 mg, interval 12 h
# [5] = E1.3: expected t1/2 90-100 min, 500 mg, interval 8 h
# [6] = E1.4: expected t1/2 90-100 min, 750 mg, interval 12 h
# [7] = E1.5: expected t1/2 90-100 min, 750 mg, interval 8 h
# [8] = E2.1: simulated poor absorber, 500 mg, interval 8 h
# [9] = E2.2: simulated standard absorber, 500 mg, interval 8 h
# [10] = E2.3: simulated good absorber, 500 mg, interval 8 h
structure (smiles),measurement,setting,value
"N[C@@H](C(=O)N[C@@H]1C(=O)N2C(C(=O)O)=C(Cl)CS[C@H]12)c1ccccc1 [cefaclor, cefaclor monohydrate]",Δ UFC/ml by 24 h,[1]; [3],−1.5 log
same,Observed Δt > MIC,[1]; [3],50%
same,Δ UFC/ml by 24 h,[1]; [4],−1.5 log
same,Observed Δt > MIC,[1]; [4],30-35%
same,Δ UFC/ml by 24 h,[1]; [5],−4 log
same,Observed Δt > MIC,[1]; [5],75%
same,Δ UFC/ml by 24 h,[1]; [6],−1.5 log
same,Observed Δt > MIC,[1]; [6],58%
same,Δ UFC/ml by 24 h,[1]; [7],>−5 log
same,Observed Δt > MIC,[1]; [7],87%
same,Δ UFC/ml by 24 h,[1]; [8],−3 log
same,Δt > MIC,[1]; [8],50%
same,Δ UFC/ml by 24 h,[1]; [9],−4 log
same,Δt > MIC,[1]; [9],75%
same,Δ UFC/ml by 24 h,[1]; [10],−5 log
same,Δt > MIC,[1]; [10],87%
same,Observed t1/2,"[2]; E1.1: expected t1/2 45-50 min, 500 mg cefaclor, dosage interval 8 h",0.767 h
same,Observed t1/2,"[2]; E1.2: expected t1/2 55-60 min, 750 mg cefaclor, dosage interval 12 h",0.967 h
same,Observed t1/2,"[2]; E1.3: expected t1/2 90-100 min, 500 mg cefaclor, dosage interval 8 h",1.67 h
same,Observed t1/2,"[2]; E1.4: expected t1/2 90-100 min, 750 mg cefaclor, dosage interval 12 h",1.68 h
same,Observed t1/2,"[2]; E1.5: expected t1/2 90-100 min, 750 mg cefaclor, dosage interval 8 h",1.53 h
same,Observed t1/2,"[2]; E2.1: simulated poor absorber, expected t1/2 90-100 min, 500 mg, interval 8 h",1.6 h
same,Observed t1/2,"[2]; E2.2: simulated standard absorber, expected t1/2 90-100 min, 500 mg, interval 8 h",1.67 h
same,Observed t1/2,"[2]; E2.3: simulated good absorber, expected t1/2 90-100 min, 500 mg, interval 8 h",1.53 h
